Source: patent publication US9492493B2, “Softgel of NLKJ for treating prostate diseases” (priority 2003, dated 2016)

Tests used:
[1] = system: Human prostate cancer (PC-3M); assay: Inhibition of NLKJ softgels in combination with Lupron on the growth of human prostate cancer in animal models (Experiment Example 2); assay type: in vivo; settings: sc × 1, 21th day after inoculation
Text: Inhibition of NLKJ Softgels in Combination with Lupron on the Growth of Human Prostate Cancer in Animal Models […] for injection), Batch No. 011209; Lupron (Takeda Chemical Industries, Ltd., Osaka, Japan 541), Batch No. 47978 AP. […] Grafting Tumor: Human prostate cancer (PC-3M), subcultured by Pharmacological Department, Shanghai Institute of Pharmaceutical Industry. […] The weights of tumors were compared among the groups.

[2] = Body weight of tumor-bearing nude mice (Experiment Example 1); assay type: in vivo, BALB/C nude mice; settings: 100 mg/kg, ip × 3 (d 1, 5, 9)
Text: (§1) The treatment started from the second day after inoculation. […] The weights of tumors were compared among the groups. The result was judged based on the formula: […]

[3] = system: Human prostate cancer (PC-3M); assay: Inhibition of NLKJ softgels on the growth of human prostate cancer in an animal model (Experiment Example 1); assay type: in vivo; settings: 100 mg/kg, ip × 3 (d 1, 5, 9); 21th day after inoculation
Description: Inhibition of NLKJ Softgels on the Growth of Human Prostate Cancer in an Animal Model
NLKJ softgels (NLKJ for injection), Batch No. 20010412;
Kanglaite Injection (Product of Zhejiang Kanglaite Pharmaceutical Co. LTD, containing NLKJ 10 g/100 ml), Batch No. 0011281-1.
Grafting Tumor: Human prostate cancer (PC-3M), subcultured by Pharmacological Department, Shanghai Institute of Pharmaceutical Industry.
1) Control Group (Normal saline);
2) NLKJ softgel (5 ml/kg, p.o.×10 d);
3) NLKJ softgel (10 ml/kg, p.o.×10 d);
4) Kanglaite Injection (25 ml/kg, i.v.×10 d);
5) Cyclophamide (CTX) (100 mg/kg, ip.×3 (d1, d5, d9)).
as §1
IR: Inhibition Rate of Tumor; Xcon: Average weight of tumors of the control group; Xtreat: Average weight of tumors of the treatment group.

## CCNC(=O)[C@@H]1CCCN1C(=O)[C@H](CCCNC(=N)N)NC(=O)[C@H](CC(C)C)NC(=O)[C@@H](CC(C)C)NC(=O)[C@H](Cc1ccc(O)cc1)NC(=O)[C@H](CO)NC(=O)[C@H](Cc1c[nH]c2ccccc12)NC(=O)[C@H](Cc1c[nH]cn1)NC(=O)[C@@H]1CCC(=O)N1 [Lupron, leuprolide acetate]
[1]; 0.75 mg/kg
  Inhibition Rate(%): 37.08%
  Tumor Weight(g) (x ± SD): 0.93 ± 0.23 g
[1]; 1.50 mg/kg
  Inhibition Rate(%): 48.31%
  Tumor Weight(g) (x ± SD): 0.77 ± 0.14 g

## O=P1(N(CCCl)CCCl)NCCCO1 (centres unmarked) [CTX, Cyclophamide]
[2]; beginning
  Body weight (g) Beg: 17.0 g
[2]; end
  Body weight (g) End: 17.8 g
[3]
  Inhibition Rate(%): 92.47%
  Tumor Weight(g) (x ± SD): 0.12 ± 0.04 g
